Assay results: article PMC4315936 (Redox Biology, 2015)

Target: mitochondrial complex I (NADH:ubiquinone oxidoreductase, NQR) (Mus musculus, UniProt P03888+Q91WD5+Q9DC70)
Assay: NQR activity
Assay type: biochemical

## O=C1Nc2ccc(Cl)cc2[C@@](C#CC2CC2)(C(F)(F)F)O1 [EFV, efavirenz]
  IC50: < 10 µM
